How the values were obtained:
rat myocardial I/R model = assay: RBC velocity in the venules of heart coronary vessels after myocardial I/R; assay type: in vivo; conditions: for inhibitory effect on the decreased RBC velocity in the venules caused by I/R: from 30 min after reperfusion
Description: The rats were anesthetized by intramuscularly injecting 20 wt % urethane (1.25 g/kg) and fixed in the supine position. Neck skin was incised and anterior cervical muscles were separated to expose the trachea. Tracheal intubation was performed. Another end of the intubation was attached to a Small Animal Ventilator (ALC-V8, Shanghai Aoteshai Biology Science and Technology Limited Company, Shanghai, China) so as to carry out pressure breathing under the following conditions: a respiratory ratio of 1:1, a respiratory frequency of 75 times/min and a tidal volume of 12 mL/kg. The rectal temperature, measured with YSI REF 401 (Yellow Spring, Ohio, USA), was maintained at 37 37.5° C. by using a thermal blanket. The chest was sterilized and opened at the intercostal space between 2nd 4th ribs near the left and right sternal border to expose the heart. The 3⁄8 curved needle threaded with 3-0 suture was used to pass through the site at 1 2 mm below the juncture of the pulmonary artery cone and the left atrial appendage. The suture was ligated. A polyethylene tubule was placed between the silk suture and myocardial tissue, the silk suture was […] to cause ischemia. Ligature was released 30 min later to establish an I/R model. Danshensu+I/R group (DLA+I/R group): a Danshensu aqueous solution (in normal saline, 1.25 mg/ml) was administrated at a dosage of 5 mg/kg BW/h by intravenous drip 20 min before the experiment and continued until the end of the entire experiment. Notoginsenoside R1+I/R group (R1+I/R group): a Notoginsenoside R1 aqueous solution (in normal saline, 1.25 mg/ml) was administrated at a dosage of 5 mg/kg BW/h by intravenous drip 20 min before the experiment and continued until the end of the entire experiment. […] Heart coronary vessel microcirculation had been recorded by a CD video recorder ([…], US). […] The diameter of the venules and RBC velocity under a same visual field were recorded before ischemia, 30 min after ischemia, 30 min after reperfusion and 60 min after reperfusion. Recordings were replayed at 25 frames·s^-1, diameters of the arterioles and the venules as well as RBC velocities were measured with Image-Pro Plus 5.0 software. RBC velocities in the rat's heart arterioles and venules were expressed as “mm/s”, and the diameters of the rat's heart arterioles and venules were expressed as “μm”.

rat's liver = conditions: previous researches, cited from earlier work
[1] = system: rat's mesenteric venule walls; conditions: prior researches; rat mesentery, I/R; cited from earlier work
[2] = 5 mg/kg BW/h intravenous drip, FIG. 2

**Q.** With `CC(C)=CCC[C@](C)(O[C@@H]1O[C@H](CO)[C@@H](O)[C@H](O)[C@H]1O)[C@H]1CC[C@]2(C)[C@@H]1[C@H](O)C[C@@H]1[C@@]3(C)CC[C@H](O)C(C)(C)[C@@H]3[C@@H](O[C@@H]3O[C@H](CO)[C@@H](O)[C@H](O)[C@H]3O[C@@H]3OC[C@@H](O)[C@H](O)[C@H]3O)C[C@]12C` [Notoginsenoside R1] as the compound, how does the “inhibitory effect on the decreased RBC velocity in the venules caused by I/R” value (rat myocardial I/R model; [2]) read?
**A.** The value was “does not display a significantly inhibitory effect”.

**Q.** What about the “leukocytes adhered to rat's liver caused by I/R” value (rat's liver) of the same compound?
**A.** The value was “can reduce”.

**Q.** And the “microcirculation disorder of the liver” value (rat's liver; rat, I/R)?
**A.** Its value is “can ameliorate”.

**Q.** What does the source list for `O=C(O)C(O)Cc1ccc(O)c(O)c1` (stereo not drawn) [Danshensu, (3,4-dihydroxyphenyl)lactic acid]?
**A.** inhibitory effect on the decreased RBC velocity in the venules caused by I/R (rat myocardial I/R model; [2]): significantly inhibitory effect; course of the inhibitory effect on decreased RBC velocity (rat myocardial I/R model; 5 mg/kg BW/h intravenous drip, until 60 min after reperfusion, FIG. 2): does not further improved; amelioration of RBC velocity in the venules of the heart coronary vessels caused by I/R (summary) (rat myocardial I/R model; rats, summary statement of the description): transiently ameliorate; adhesion between leucocytes and venule walls [1]: potential for inhibiting; expression of leucocytes adhesion molecules CD11b/CD18 [1]: potential for inhibiting; leakage of plasma albumin [1]: potential for inhibiting

Reference: patent publication US9034398B2, “Traditional Chinese drug comprising Danshen extracts and Sanqi extracts and use thereof” (TASLY Pharmaceutical Group Co., LTD., priority 2009, dated 2015)
